From US11351178B2, “Selective HDAC6 inhibitors” (ITALFARMACO S.P.A., priority 2017, dated 2022)
Read-outs that look alike come from different tables or passages of the source.

Assays:
[1] = Stability to Phase I metabolism in rat S9 liver fraction; type: in vitro ADME; conditions: after 90 min, 37° C.
How it was run: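 Compounds were incubated with rat or human liver S9 fraction at 37 °C for up to 90 min. Reactions were quenched on ice with acidified acetonitrile and analysed by HPLC-UV or LC-MS/MS. Percent remaining versus time zero and intrinsic clearance were calculated.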

recombinant human HDAC6 = target: T1, recombinant human HDAC6 (Homo sapiens, UniProt Q9UBN7); assay: Enzymatic screening on recombinant human HDAC6; type: biochemical; conditions: read-out: HDAC6 IC50
T1 sequence (Q9UBN7 1-1215): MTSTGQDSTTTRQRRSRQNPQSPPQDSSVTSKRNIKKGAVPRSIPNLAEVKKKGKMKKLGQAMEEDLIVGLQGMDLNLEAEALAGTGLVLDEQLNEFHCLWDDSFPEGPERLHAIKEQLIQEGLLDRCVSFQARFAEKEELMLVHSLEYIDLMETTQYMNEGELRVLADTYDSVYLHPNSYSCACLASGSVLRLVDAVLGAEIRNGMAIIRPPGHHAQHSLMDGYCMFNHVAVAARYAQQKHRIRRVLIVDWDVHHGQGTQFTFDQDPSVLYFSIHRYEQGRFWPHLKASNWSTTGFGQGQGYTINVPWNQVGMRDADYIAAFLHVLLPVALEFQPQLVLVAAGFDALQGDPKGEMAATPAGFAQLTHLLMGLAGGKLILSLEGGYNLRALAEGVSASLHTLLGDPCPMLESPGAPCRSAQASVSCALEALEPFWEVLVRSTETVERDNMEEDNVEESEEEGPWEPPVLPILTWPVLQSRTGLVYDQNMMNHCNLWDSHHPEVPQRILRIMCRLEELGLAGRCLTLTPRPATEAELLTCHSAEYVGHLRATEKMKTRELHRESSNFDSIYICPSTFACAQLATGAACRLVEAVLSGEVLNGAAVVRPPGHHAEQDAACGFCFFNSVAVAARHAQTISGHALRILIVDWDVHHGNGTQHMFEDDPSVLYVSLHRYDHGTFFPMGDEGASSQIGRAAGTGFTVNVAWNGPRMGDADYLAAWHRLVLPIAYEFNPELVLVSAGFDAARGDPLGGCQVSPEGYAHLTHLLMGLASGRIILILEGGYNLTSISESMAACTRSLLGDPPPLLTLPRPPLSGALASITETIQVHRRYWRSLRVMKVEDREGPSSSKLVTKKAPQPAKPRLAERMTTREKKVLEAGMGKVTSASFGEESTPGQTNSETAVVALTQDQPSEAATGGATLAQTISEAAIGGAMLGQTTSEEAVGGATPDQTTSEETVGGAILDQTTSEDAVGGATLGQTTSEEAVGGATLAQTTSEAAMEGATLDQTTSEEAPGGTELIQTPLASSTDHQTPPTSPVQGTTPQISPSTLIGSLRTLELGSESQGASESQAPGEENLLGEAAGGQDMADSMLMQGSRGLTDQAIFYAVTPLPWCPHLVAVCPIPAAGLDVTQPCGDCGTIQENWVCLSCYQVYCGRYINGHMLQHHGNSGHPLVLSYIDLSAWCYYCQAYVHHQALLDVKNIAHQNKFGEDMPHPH
How it was run: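 Step one: pre-incubate recombinant human HDAC with test compound at 30 °C, with duration set per isoform. Step two: add fluorogenic-type acetyl-lysine substrate (FLUOR DE LYS, its Green variant, or trifluoroacetyl-L-lysine), 2× concentrated in Tris-HCl pH 8 buffer with NaCl, Tween-20 and glycerol. Step three: react at 30 °C.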

HDAC1 = target: T2, HDAC1 (Homo sapiens, UniProt Q13547); assay: Enzymatic test HDAC1; type: biochemical; conditions: Table 3
T2 construct: purchased BPS 50051

HDAC8 = target: T3, HDAC8 (Homo sapiens, UniProt Q9BY41); assay: Enzymatic test HDAC8; type: biochemical; conditions: Table 3
T3 construct: purchased BPS 50008
T3 sequence (Q9BY41 1-377): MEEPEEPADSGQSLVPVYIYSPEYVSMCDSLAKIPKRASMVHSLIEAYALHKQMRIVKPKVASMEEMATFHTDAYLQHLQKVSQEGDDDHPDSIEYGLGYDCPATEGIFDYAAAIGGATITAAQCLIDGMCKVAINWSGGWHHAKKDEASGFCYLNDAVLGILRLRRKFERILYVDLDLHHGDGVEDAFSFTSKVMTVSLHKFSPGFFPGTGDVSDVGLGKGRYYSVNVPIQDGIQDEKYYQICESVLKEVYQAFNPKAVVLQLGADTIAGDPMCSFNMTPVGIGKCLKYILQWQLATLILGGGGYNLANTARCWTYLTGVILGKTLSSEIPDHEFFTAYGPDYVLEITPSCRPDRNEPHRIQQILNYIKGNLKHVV

HDAC4 = target: T4, HDAC4 (Homo sapiens, UniProt P56524); assay: Enzymatic test HDAC4; type: biochemical; conditions: Table 3
T4 construct: purchased BPS 50004
Protocol: (§1) After a period of incubation at 30° C. (incubation times vary for different isoforms and are shown in table 1) 25 μL of solution containing the substrate were added. As substrate, FLUOR DE LYS® deacetylase substrate (Enzo Life Sciences, cat #BML-K1104, FdL), FLUOR DE LYS®-Green substrate (Enzo Life Sciences, cat #BML-K1572 FdL_G) and trifluoroacetyl-L-lysine (Tfal)-2× concentrated solution in 25 mM Tris-HCl, pH 8, 130 mM NaCl 0.05% Tween-20 10% glycerol) were used. Following a reaction period at 30° C.

Stability in rat plasma = type: in vitro ADME; conditions: after 4 hours, 37° C.
How it was run: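 Compounds incubated at 37° C in rat or human plasma at 50 μM (UV/HPLC) or 1 or 2 μM (LC-MS/MS) for 0–4 h. Reaction stopped with acidified acetonitrile on ice; percent remaining versus initial amount and plasma half-life calculated.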

HDAC9 = target: T5, HDAC9 (Homo sapiens, UniProt Q9UKV0); assay: Enzymatic test HDAC9; type: biochemical; conditions: Table 3
T5 construct: purchased BPS 50009
Protocol: as §1

T4 sequence (P56524 627-1084 limits assumed): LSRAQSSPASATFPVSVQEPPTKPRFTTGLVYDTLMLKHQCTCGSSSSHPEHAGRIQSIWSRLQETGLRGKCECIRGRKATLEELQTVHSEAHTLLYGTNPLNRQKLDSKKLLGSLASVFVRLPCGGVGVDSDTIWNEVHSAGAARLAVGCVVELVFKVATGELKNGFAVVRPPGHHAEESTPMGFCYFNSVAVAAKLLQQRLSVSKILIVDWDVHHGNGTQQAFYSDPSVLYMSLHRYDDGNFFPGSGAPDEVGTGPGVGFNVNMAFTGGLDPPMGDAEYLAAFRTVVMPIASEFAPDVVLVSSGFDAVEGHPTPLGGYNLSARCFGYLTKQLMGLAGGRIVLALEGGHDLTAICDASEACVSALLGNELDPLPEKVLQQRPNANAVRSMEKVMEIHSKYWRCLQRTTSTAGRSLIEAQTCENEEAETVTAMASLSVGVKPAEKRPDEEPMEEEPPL
T5 sequence (Q9UKV0 1-1066 isoform Q9UKV0-5): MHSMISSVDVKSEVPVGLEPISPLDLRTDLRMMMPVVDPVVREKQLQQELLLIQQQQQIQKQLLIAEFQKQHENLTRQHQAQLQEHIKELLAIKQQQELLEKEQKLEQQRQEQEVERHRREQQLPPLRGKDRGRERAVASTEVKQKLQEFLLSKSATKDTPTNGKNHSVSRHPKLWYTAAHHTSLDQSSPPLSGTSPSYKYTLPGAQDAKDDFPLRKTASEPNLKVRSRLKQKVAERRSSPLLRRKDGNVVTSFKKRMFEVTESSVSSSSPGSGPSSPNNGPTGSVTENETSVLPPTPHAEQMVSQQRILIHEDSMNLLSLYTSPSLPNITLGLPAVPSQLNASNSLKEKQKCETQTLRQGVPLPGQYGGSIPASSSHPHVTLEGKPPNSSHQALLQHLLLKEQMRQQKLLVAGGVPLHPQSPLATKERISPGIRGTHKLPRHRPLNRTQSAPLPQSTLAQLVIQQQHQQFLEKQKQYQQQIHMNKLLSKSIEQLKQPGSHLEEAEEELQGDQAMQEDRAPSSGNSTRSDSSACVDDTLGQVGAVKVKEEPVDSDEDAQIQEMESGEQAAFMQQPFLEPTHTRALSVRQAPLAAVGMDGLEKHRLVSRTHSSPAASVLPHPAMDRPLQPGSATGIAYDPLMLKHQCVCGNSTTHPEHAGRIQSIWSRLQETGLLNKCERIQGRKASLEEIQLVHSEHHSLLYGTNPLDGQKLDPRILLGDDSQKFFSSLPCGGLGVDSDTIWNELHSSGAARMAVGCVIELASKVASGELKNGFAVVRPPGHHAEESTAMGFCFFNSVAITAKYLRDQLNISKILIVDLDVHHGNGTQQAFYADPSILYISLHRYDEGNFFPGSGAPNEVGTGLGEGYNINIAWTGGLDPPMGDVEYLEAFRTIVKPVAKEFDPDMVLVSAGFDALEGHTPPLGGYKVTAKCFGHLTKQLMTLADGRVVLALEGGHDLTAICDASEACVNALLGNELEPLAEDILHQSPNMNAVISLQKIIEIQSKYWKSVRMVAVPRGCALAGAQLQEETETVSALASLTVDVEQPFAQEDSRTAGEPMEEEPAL
T2 sequence (Q13547 whole entry): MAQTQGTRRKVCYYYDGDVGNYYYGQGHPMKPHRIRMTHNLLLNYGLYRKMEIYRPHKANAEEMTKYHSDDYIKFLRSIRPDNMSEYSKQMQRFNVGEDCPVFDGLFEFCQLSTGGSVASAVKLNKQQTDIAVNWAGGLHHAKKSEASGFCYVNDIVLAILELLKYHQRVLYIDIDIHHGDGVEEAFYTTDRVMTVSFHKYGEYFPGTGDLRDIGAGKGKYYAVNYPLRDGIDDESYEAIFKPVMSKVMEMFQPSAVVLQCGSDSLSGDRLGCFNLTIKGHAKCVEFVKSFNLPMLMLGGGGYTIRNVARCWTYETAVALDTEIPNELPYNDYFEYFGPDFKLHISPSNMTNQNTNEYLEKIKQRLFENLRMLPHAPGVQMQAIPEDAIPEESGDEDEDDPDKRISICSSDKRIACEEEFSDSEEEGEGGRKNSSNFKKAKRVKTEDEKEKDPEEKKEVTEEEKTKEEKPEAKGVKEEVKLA

Row | residual percentage in rat S9 fraction [1] [%] | IC50 (recombinant human HDAC6; Table 2) [nM] | IC50 (recombinant human HDAC6; Table 3) [nM] | IC50 (HDAC1) [nM] | IC50 (HDAC8) [nM] | IC50 (HDAC4) [nM] | residual percentage in rat plasma (Stability in rat plasma) [%] | IC50 (HDAC9) [nM] | SMILES
1 | 8 | 11 | 11 | 616 | 2830 | 4240 | 77 | 2690 | O=C(NO)c1ccc(Cn2nnc(-c3ccc(C(F)(F)F)cc3)n2)cc1 [comp. 23, 4-[[5-[4-(trifluoromethyl)phenyl]tetrazol-2-yl]methyl]benzenecarbohydroxamic acid]
2 | 68 | 10 | 10 | 426 | 270 | 1330 | 90 | 328 | Nn1c(Sc2ccc(C(=O)NO)cc2)nnc1-c1ccc(OC(F)F)cc1 [comp. 28, 4-[[4-amino-5-[4-(difluoromethoxy)phenyl]-1,2,4-triazol-3-yl]sulfanyl]benzenecarbohydroxamic acid]
3 | 2 | 3 | 3 | 232 | 413 | 1910 | 52 | 948 | O=C(NO)c1ccc(Cn2nnc(-c3ccccc3F)n2)cc1 [comp. 33, 4-[[5-(2-fluorophenyl)tetrazol-2-yl]methyl]benzenecarbohydroxamic acid]
4 | 15 | 6 | 6 | 364 | 1000 | 3930 | 106 | 2170 | O=C(NO)c1ccc(Cc2nnc(-c3ccc(F)cc3F)o2)cc1 [comp. 58, 4-((5-(2,4-difluorophenyl)-1,3,4-oxadiazol-2-yl)methyl)-N-hydroxybenzamide]
5 | 8 | 7 | 7 | 353 | 547 | 2490 | 53 | 1540 | CN(C)S(=O)(=O)c1cccc(-c2nnn(Cc3ccc(C(=O)NO)cc3)n2)c1 [comp. 59, 4-[[5-[3-(dimethylsulfamoyl)phenyl]tetrazol-2-yl]methyl]benzenecarbohydroxamic acid]
6 | 49 | 9 | 9 | 495 | 494 | 1590 | 71 | 884 | CCN(CC)S(=O)(=O)c1cccc(-c2nnc(Sc3ccc(C(=O)NO)cc3)n2N)c1 [comp. 61, 4-[[4-amino-5-[3-(diethylsulfamoyl)phenyl]-1,2,4-triazol-3-yl]sulfanyl]benzenecarbohydroxamic acid]

Row | SMILES | residual percentage in rat S9 fraction [1] [%] | IC50 (recombinant human HDAC6; Table 2) [nM] | IC50 (recombinant human HDAC6; Table 3) [nM] | IC50 (HDAC1) [nM] | IC50 (HDAC8) [nM] | IC50 (HDAC4) [nM] | residual percentage in rat plasma (Stability in rat plasma) [%] | IC50 (HDAC9) [nM]
7 | O=C(NO)c1cc(F)c(Cn2nnnc2-c2cccs2)c(F)c1 [comp. 15, 3,5-difluoro-N-hydroxy-4-((5-(thiophen-2-yl)-1H-tetrazol-1-yl)methyl)benzamide] | 60 | 19 | 19 | 7090 | 999 | 660 | 78 | 659
8 | Cn1c(Sc2c(F)cc(C(=O)NO)cc2F)nnc1-c1cccs1 [comp. 17, 3,5-difluoro-N-hydroxy-4-((4-methyl-5-(thiophen-2-yl)-4H-1,2,4-triazol-3-yl)thio)benzamide] | 71 | 9 | 9 | 3990 | 193 | 1390 | 87 | 496
9 | O=C(NO)c1cc(F)c(Cn2nnc(-c3ccco3)n2)c(F)c1 [comp. 19, 3,5-difluoro-4-((5-(furan-2-yl)-2H-tetrazol-2-yl)methyl)-N-hydroxybenzamide] | 68 | 4 | 4 | 2520 | 647 | 675 | 96 | 592
